In ChEMBL document CHEMBL3885861, “Open TG-GATES”:

Species on record: Rattus norvegicus
Assay: Open TG-GATES - Regimen: Daily Repeat
Format: toxicity, organism-based, Sprague-Dawley
Set-up: regimen Daily Repeat, gender Male, age 6 weeks
Settings: in vivo, po, 1000 mg/kg, […], route gavage, dose level High; for KIDNEY_L / KIDNEY_R / KIDNEY_TOTAL: tissue Kidney; for LIVER: tissue Liver; for A/G / ALP / ALT / AST / BUN / CRE / Ca / Cl / DBIL / GLC / IP / K / LDH / Na / PL / RALB / TBIL / TC / TG / TP / gamma-GTP: tissue Plasma

CCOC(=O)CCC(=O)O[C@H]1[C@H](O[C@@H]2[C@@H](C)[C@H](O[C@H]3C[C@@](C)(OC)[C@@H](O)[C@H](C)O3)[C@@H](C)C(=O)O[C@H](CC)[C@@](C)(O)[C@H](O)[C@@H](C)C(=O)[C@H](C)C[C@@]2(C)O)O[C@H](C)C[C@@H]1N(C)C [ERYTHROMYCIN ETHYLSUCCINATE]
Lym (tissue Blood, time 28 day): 82.4% | MCH (tissue Blood, time 28 day): 18.9 pg | MCHC (tissue Blood, time 28 day): 34.7% | MCV (tissue Blood, time 28 day): 54.3 fL | Mono (tissue Blood, time 28 day): 2.2% | Neu (tissue Blood, time 28 day): 12.6% | PT (tissue Blood, time 28 day): 16.3 s | Plat (tissue Blood, time 28 day): 102.9 x10_4/uL | RBC (tissue Blood, time 28 day): 804.4 x10_4/ul | Ret (tissue Blood, time 28 day): 2.3% | WBC (tissue Blood, time 28 day): 79.8 x10_2/uL | KIDNEY_L (time 7 day): 1.1 g | KIDNEY_R (time 7 day): 1.1 g | KIDNEY_TOTAL (time 7 day): 2.2 g | KIDNEY_L (time 14 day): 1.2 g | KIDNEY_R (time 14 day): 1.2 g | KIDNEY_TOTAL (time 14 day): 2.4 g | KIDNEY_L (time 28 day): 1.4 g | KIDNEY_R (time 28 day): 1.4 g | KIDNEY_TOTAL (time 28 day): 2.8 g | LIVER (time 7 day): 10.1 g | LIVER (time 14 day): 12.3 g | LIVER (time 28 day): 13.8 g | A/G (time 7 day): 1.1 | ALP (time 7 day): 1998.2 IU/L | ALT (time 7 day): 35.2 IU/L | AST (time 7 day): 71.8 IU/L | BUN (time 7 day): 18.2 mg/dL | CRE (time 7 day): 0.2 mg/dL | Ca (time 7 day): 10.5 mg/dL | Cl (time 7 day): 108.2 meq/L | DBIL (time 7 day): 0 mg/dL | GLC (time 7 day): 188.6 mg/dL | IP (time 7 day): 7.4 mg/dL | K (time 7 day): 4.1 meq/L | LDH (time 7 day): 156.6 IU/L | Na (time 7 day): 141.8 meq/L | PL (time 7 day): 155 mg/dL | RALB (time 7 day): 2.8 g/dL | TBIL (time 7 day): 0.01 mg/dL | TC (time 7 day): 84.8 mg/dL | TG (time 7 day): 97.6 mg/dL | TP (time 7 day): 5.4 g/dL | gamma-GTP (time 7 day): 1.6 IU/L | A/G (time 14 day): 1.1 | ALP (time 14 day): 1716 IU/L | ALT (time 14 day): 36 IU/L | AST (time 14 day): 68.8 IU/L | BUN (time 14 day): 19.6 mg/dL | CRE (time 14 day): 0.2 mg/dL | Ca (time 14 day): 10.7 mg/dL | Cl (time 14 day): 108.6 meq/L | DBIL (time 14 day): 0 mg/dL | GLC (time 14 day): 187 mg/dL | IP (time 14 day): 6.6 mg/dL | K (time 14 day): 4.4 meq/L | LDH (time 14 day): 161 IU/L | Na (time 14 day): 142 meq/L | PL (time 14 day): 163.2 mg/dL | RALB (time 14 day): 2.9 g/dL | TBIL (time 14 day): 0.006 mg/dL | TC (time 14 day): 88.8 mg/dL | TG (time 14 day): 140.8 mg/dL | TP (time 14 day): 5.6 g/dL | gamma-GTP (time 14 day): 1.8 IU/L | A/G (time 28 day): 1.1 | ALP (time 28 day): 1257.4 IU/L | ALT (time 28 day): 37 IU/L | AST (time 28 day): 67.6 IU/L | BUN (time 28 day): 19.2 mg/dL | CRE (time 28 day): 0.2 mg/dL | Ca (time 28 day): 10.4 mg/dL | Cl (time 28 day): 108.8 meq/L | DBIL (time 28 day): 0.002 mg/dL | GLC (time 28 day): 173 mg/dL | IP (time 28 day): 6.9 mg/dL | K (time 28 day): 4.1 meq/L | LDH (time 28 day): 132.8 IU/L | Na (time 28 day): 141.8 meq/L | PL (time 28 day): 138 mg/dL | RALB (time 28 day): 3 g/dL | TBIL (time 28 day): 0.012 mg/dL | TC (time 28 day): 75.2 mg/dL | TG (time 28 day): 99.6 mg/dL | TP (time 28 day): 5.7 g/dL | gamma-GTP (time 28 day): 1.6 IU/L
